This passage reports IC50 results from patent US9718790B2, “Triazine derivative and pharmaceutical composition having an analgesic activity comprising the same” (SHIONOGI & CO., LTD., priority 2010, dated 2017).

Chain of human P2X3 receptor (P56373 whole entry): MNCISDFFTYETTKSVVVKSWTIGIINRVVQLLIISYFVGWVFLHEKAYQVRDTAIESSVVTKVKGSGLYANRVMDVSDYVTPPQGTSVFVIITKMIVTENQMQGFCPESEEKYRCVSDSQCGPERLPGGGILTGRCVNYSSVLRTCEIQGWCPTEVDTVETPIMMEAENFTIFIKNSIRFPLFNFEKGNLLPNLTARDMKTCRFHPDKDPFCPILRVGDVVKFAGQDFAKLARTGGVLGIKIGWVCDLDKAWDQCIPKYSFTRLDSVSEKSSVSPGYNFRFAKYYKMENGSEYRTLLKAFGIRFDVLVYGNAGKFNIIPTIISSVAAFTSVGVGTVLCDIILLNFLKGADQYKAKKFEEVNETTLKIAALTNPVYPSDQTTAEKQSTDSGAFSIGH

One test concerns the target human P2X3 receptor (Homo sapiens (Human), UniProt P56373). Nature of the test: Evaluation of human P2X3 receptor inhibitory activity (Fluo-3 calcium fluorescence, FDSS 3000, ATP stimulation).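 Further: stimulus was 50 nM ATP with fluorescence followed for 3 min, and the response per well was peak post-ATP fluorescence divided by the reading at measurement start.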 Type of test: cell-based. The settings on record: C6BU-1 cells stably expressing human P2X3 receptor.
Turning to `Cc1cc(/N=c2\[nH]c(=O)n(C[C@H](C)C(=O)NCC(F)(F)F)c(=O)n2Cc2ccc(Cl)cc2)ccc1OC(C)C` [Compound I-0726], the IC50 was 16 nM.
With `CCn1c(=O)[nH]/c(=N\c2ccc(Oc3ccc(C(=O)O)cc3)cc2)n(Cc2ccc(C)cc2)c1=O` [Compound I-2035], the IC50 was 22 nM.
On to `C[C@@H](Oc1ccc(/N=c2\[nH]c(=O)n(CCC(=O)NCCO)c(=O)n2Cc2ccc(Cl)cc2)cc1)C(F)(F)F` [Compound I-1998], for which the IC50 turned out to be 34 nM.
For `CC(C)Oc1ccc(/N=c2\[nH]c(=O)n([C@H]3C[C@@H]3C(=O)O)c(=O)n2Cc2ccc(Cl)cc2)cc1F` [Compound I-0675], the IC50 was 37 nM.
Consider `COC(=O)[C@@H](C)Cn1c(=O)[nH]/c(=N\c2ccc(Cc3ccncc3)cc2)n(Cc2ccc(C)cc2)c1=O` [Compound I-1241], for which the IC50 amounted to 108 nM.
For the compound `C[C@@H](Cn1c(=O)[nH]/c(=N\c2ccc(OC3CCC3)cc2)n(Cc2ccc(Cl)cc2)c1=O)C(=O)O` [Compound I-1284], the IC50 was determined as 15 nM.
For `COC(=O)[C@@H](C)Cn1c(=O)[nH]/c(=N\c2ccc(OC)c(C(F)(F)F)c2)n(Cc2ccc(Cl)cc2)c1=O` [Compound I-0796], the IC50 was found to be 386 nM.
Turning to `CCCn1c(=O)[nH]/c(=N\c2ccc(Oc3ccnc(C(=O)O)c3)cc2)n(Cc2ccc(Cl)cc2)c1=O` [Compound I-2162], the IC50 amounted to 6 nM.
The same measure, in the same setting: in the case of `CC(C)Oc1ccc(/N=c2\[nH]c(=O)n(C[C@H](O)CO)c(=O)n2Cc2ccc(Cl)cc2)cc1Cl` [Compound I-0638, (R)-1-(4-chlorobenzyl)6-(3-chloro-4-isopropoxyphenylamino)-3-(2,3-dihydroxypropyl)-1,3,5-triazinane-2,4-dion] it was 6 nM; in that of `CC(C)(Cn1c(=O)[nH]/c(=N\c2ccc(OCC3CC3)cc2)n(Cc2ccc(Cl)cc2)c1=O)C(=O)O` [Compound I-1263], 25 nM.
Same read-out and setting: in the case of `CCOC(=O)c1cc(Cn2c(=O)[nH]/c(=N\c3ccc(OC(C)C)c(C)c3)n(Cc3ccc(Cl)cc3)c2=O)on1` [Compound I-0784] it was 22 nM; in that of `Cc1ccc(Oc2ccc(/N=c3\[nH]c(=O)n(CC(N)=O)c(=O)n3Cc3ccc(Cl)cc3)cc2)cn1` [Compound I-1944], 11 nM.
Consider `CC(C)Oc1ccc(/N=c2\[nH]c(=O)n(CC(=O)N3CCOCC3)c(=O)n2Cc2ccc(Cl)cc2)cc1Cl` [Compound I-0739], for which the IC50 was determined as 29 nM.
On the same count and under the same terms, in the case of `COC(=O)C(C)(C)Cn1c(=O)[nH]/c(=N\c2ccc(OCC3CC3)cc2)n(Cc2ccc(C)cc2)c1=O` [Compound I-1242] it was 15 nM; in that of `CC(C)Oc1ccc(/N=c2\[nH]c(OCC(=O)N(C)CCO)nc(=O)n2Cc2ccc(Cl)cc2)cc1F` [Compound I-0586], 611 nM.
For `CCn1c(=O)[nH]/c(=N\c2ccc(OCc3noc(C)n3)cc2)n(Cc2ccc(Cl)cc2)c1=O` [Compound I-2200], the IC50 stood at 545 nM.
As to `CC(C)Oc1ccc(/N=c2\[nH]c(=O)n(C[C@H](C)C(=O)O)c(=O)n2Cc2ccc(F)cc2)cc1F` [Compound I-0637], the IC50 worked out at 69 nM.
Consider `Cc1ccc(Cn2c(=O)n([C@@H](C)[C@@H](C)C(=O)O)c(=O)[nH]/c2=N\c2ccc3oc(C)cc3c2)cc1` [Compound I-1353], for which the IC50 is 41 nM.
In the case of `C=Cc1cc(/N=c2\[nH]c(=O)n(CCC(=O)OCC)c(=O)n2Cc2ccc(C)cc2)ccc1OC(C)C` [Compound I-1190], the IC50 amounted to 5 nM.
Regarding `COC(=O)[C@H](C)[C@H](C)n1c(=O)[nH]/c(=N\c2ccc(OCC(C)C)cc2)n(Cc2ccc(C)cc2)c1=O` [Compound I-1331], the IC50 was found to be 56 nM.
Still for that read-out and setting: then `C[C@H](C(=O)O)[C@@H](C)n1c(=O)[nH]/c(=N\c2cccc(C(F)(F)F)c2)n(Cc2ccc(Cl)cc2)c1=O` [Compound I-1345], with 69 nM.
As for `CC(C)Oc1ccc(/N=c2\[nH]c(=O)n([C@@H]3C[C@H]3C(=O)OC(C)(C)C)c(=O)n2Cc2ccc(Cl)cc2)cc1F` [Compound I-0604], the IC50 is 13 nM.
As for `COCCOc1ccc(/N=c2\[nH]c(=O)n(C[C@H](C)C(=O)O)c(=O)n2Cc2ccc(Cl)cc2)cc1Cl` [Compound I-0789], the half-maximal inhibitory concentration (IC50) was determined as 181 nM.
`Cc1cc(/N=c2\[nH]c(=O)n(Cc3cccc(C(=O)O)n3)c(=O)n2Cc2ccc(Cl)cc2)ccc1OC(C)C` [Compound I-0801]: the IC50 turned out to be 10 nM.
In the case of `CCn1c(=O)[nH]/c(=N\c2ccc(Oc3cccc(C(=O)OC)n3)cc2)n(Cc2ccc(C)cc2)c1=O` [Compound I-2180], the IC50 came to 11 nM.
For the compound `CNC(=O)CCn1c(=O)[nH]/c(=N\c2ccc(OCC3CC3)cc2)n(Cc2ccc(Cl)cc2)c1=O` [Compound I-1912], the IC50 amounted to 29 nM.
Turning to `CCOC(=O)c1cc2cc(/N=c3\[nH]c(=O)n(C[C@H](C)C(=O)OC)c(=O)n3Cc3ccc(Cl)cc3)ccc2o1` [Compound I-1938], the IC50 came to 312 nM.
Take `Cc1ccc(Cn2c(=O)n(CCC(=O)O)c(=O)[nH]/c2=N\c2ccc(OC(C)C)cc2C)cc1` [Compound I-2048]: the IC50 came to 491 nM.

Still in this test, the particulars now being: C6BU-1 cells stably expressing human P2X3 receptor, Fluo-3 fluorescence, FDSS 3000.
As for `COC(=O)[C@@H](C)Cn1c(=O)[nH]/c(=N\c2ccc(C=C(C)C)c(C)c2)n(Cc2ccc(Cl)cc2)c1=O` [Compound I-0948], the IC50 was found to be 19 nM.
On to `CCCc1ccc(Cn2c(=O)n(C[C@H](C)C(=O)OC)c(=O)[nH]/c2=N\c2ccc(OC(C)C)cc2)cc1` [Compound I-1144], for which the IC50 stood at 764 nM.
On the same count and under the same terms, then `C[C@@H](C(=O)O)[C@H](C)n1c(=O)[nH]/c(=N\c2ccc3c(c2)CCO3)n(Cc2ccc(Cl)cc2)c1=O` [Compound I-1833], with 580 nM.
Regarding `CCCOc1ccc(/N=c2\[nH]c(=O)n(CC3(C(=O)OCC)CC3)c(=O)n2Cc2ccc(C)cc2)cc1` [Compound I-0912], the IC50 turned out to be 10 nM.
For the compound `CNC(=O)Cn1c(=O)[nH]/c(=N\c2ccc(Oc3ccc(OC)nc3)cc2)n(Cc2ccc(Cl)cc2)c1=O` [Compound I-1857], the IC50 is 7 nM.
Take `COC(=O)[C@@H](C)Cn1c(=O)[nH]/c(=N\c2ccc(CC3CCCC3)cc2)n(Cc2ccc(C)cc2)c1=O` [Compound I-1096]: the IC50 worked out at 94 nM.
As for `CNC(=O)CCn1c(=O)[nH]/c(=N\c2ccc3nc(C)sc3c2)n(Cc2ccc(C)cc2)c1=O` [Compound I-1570], the IC50 turned out to be 8 nM.
In the case of `COC(=O)[C@H](C)[C@H](C)n1c(=O)[nH]/c(=N\c2ccc3oc4ccccc4c3c2)n(Cc2ccc(Cl)cc2)c1=O` [Compound I-1827], the IC50 stood at 913 nM.
Still for that read-out and setting: then `CCn1c(=O)[nH]/c(=N\c2ccc(Oc3ccnc(CO)c3)cc2)n(Cc2ccc(Cl)cc2)c1=O` [Compound I-1844], with 4 nM; and `CC[C@@H](C)Oc1ccc(/N=c2\[nH]c(=O)n(C[C@H](C)C(=O)OC)c(=O)n2Cc2ccc(C)cc2)cc1Cl` [Compound I-1015], with 7 nM.
On to `C[C@@H](C(=O)O)[C@H](C)n1c(=O)[nH]/c(=N\c2ccc3nc(C4CC4)sc3c2)n(Cc2ccc(Cl)cc2)c1=O` [Compound I-1586], for which the IC50 came out at 13 nM.
As for `CCc1oc2ccc(/N=c3\[nH]c(=O)n(CC(C)(C)C(=O)OC)c(=O)n3Cc3ccc(C)cc3)cc2c1C` [Compound I-1575], the 50% inhibitory concentration (IC50) came out at 9 nM.

Still in this test, the particulars now being: human P2X3 receptor, Test Example 1.
With `CCn1c(=O)[nH]/c(=N\c2ccc(Oc3ccc(C(=O)OC)cn3)cc2)n(C[C@H]2CC[C@H](C)CC2)c1=O` [Compound I-2700], the IC50 is 353 nM.
On the same count and under the same terms, then `O=c1[nH]/c(=N\c2ccc(Oc3cccc(F)n3)cc2)n(Cc2ccc(Cl)cc2)c(=O)n1CC(CO)CO` [Compound I-2582], with 3 nM.
The same measure, in the same setting: then `CCn1c(=O)[nH]/c(=N\c2ccc(Oc3ccon3)cc2)n(Cc2ccc(Cl)cc2)c1=O` [Compound I-2357], with 12 nM.
Same read-out and setting: in the case of `O=C(O)c1cc(Oc2ccc(/N=c3\[nH]c(=O)n(CC(F)F)c(=O)n3Cc3ccc(Cl)cc3)cc2)ccn1` [Compound I-2248] it was 7 nM; in that of `COC(=O)CCn1c(=O)[nH]/c(=N\c2ccc(Oc3cccc(C(N)=O)n3)cc2)n(Cc2ccc(C)cc2)c1=O` [Compound I-2682], 2 nM.
Turning to `CCn1c(=O)[nH]/c(=N\c2ccc(Oc3ccnc(NC(=O)OC(C)(C)C)c3)cc2)n(Cc2ccc(Cl)cc2)c1=O` [Compound I-2304], the IC50 came out at 29 nM.
As for `CCn1c(=O)[nH]/c(=N\c2ccc(Oc3nccc(C(=O)O)n3)cc2)n(Cc2ccc(Cl)cc2)c1=O` [Compound I-2319], the IC50 was 17 nM.
For the compound `Cc1nsc(Oc2ccc(/N=c3\[nH]c(=O)n(CCC(=O)O)c(=O)n3Cc3ccc(Cl)cc3)cc2)n1` [Compound I-2697], the IC50 came to 19 nM.
Regarding `CCn1c(=O)[nH]/c(=N\c2ccc(Oc3cc(C(=O)O)ncn3)cc2)n(Cc2ccc(C)cc2)c1=O` [Compound I-2444], the IC50 worked out at 8 nM.
Regarding `Cc1cc(Oc2ccc(/N=c3\[nH]c(=O)n(C[C@@H](O)CO)c(=O)n3Cc3ccc(Cl)cc3)cc2)no1` [Compound I-2229], the IC50 came to 23 nM.
Take `Cc1ccc(Cn2c(=O)n(C[C@H](C)C(=O)O)c(=O)[nH]/c2=N\c2ccc(C3CC3)c(Cl)c2)cc1` [Compound I-1489]: the concentration for half-maximal inhibition (IC50) was found to be 254 nM.
Turning to `CCOC(=O)CCCn1c(=O)[nH]/c(=N\c2ccc(OCC)c(Cl)c2)n(Cc2ccc(C)cc2)c1=O` [Compound I-0862], the IC50 turned out to be 10 nM.
As for `Cn1c(=O)[nH]/c(=N\c2ccc(Oc3cncc(C(=O)O)n3)cc2)n(Cc2ccc(Cl)cc2)c1=O` [Compound I-2476], the IC50 amounted to 13 nM.
On the same count and under the same terms, in the case of `Cn1c(=O)[nH]/c(=N\c2ccc(Oc3nc(C(=O)O)cs3)cc2)n(Cc2ccc(Cl)cc2)c1=O` [Compound I-2410] it was 36 nM; in that of `CCn1c(=O)[nH]/c(=N\c2ccc(Oc3cnc(C(N)=O)cn3)cc2)n(Cc2ccc(Cl)cc2)c1=O` [Compound I-2388], 3 nM.
As to `Cc1ccc(Cn2c(=O)n(CCC(=O)O)c(=O)[nH]/c2=N\c2ccc3nc(C)sc3c2)cc1` [Compound I-1521], the IC50 is 22 nM.
As for `CCn1c(=O)[nH]/c(=N\c2ccc(Oc3cccc(C(N)=O)n3)cc2)n(Cc2ccc(Cl)cn2)c1=O` [Compound I-2240], the IC50 was 21 nM.
Consider `O=c1[nH]/c(=N\c2ccc(Oc3ccon3)c(F)c2)n(Cc2ccc(Cl)cc2)c(=O)n1CCO` [Compound I-2438], for which the IC50 was 7 nM.

The term IC50 denotes the point on the concentration scale where inhibition reaches its midpoint.
